Experimental data published in US8318724B2, “Small molecule inhibitors of MRP1 and other multidrug transporters” (The Cleveland Clinic Foundation, priority 2004, dated 2012).

What was measured:
[1] = system: MCF7/VP cells; experiment: Sensitization of MRP1-expressing MCF7/VP cells to chemotherapeutic drugs (methylene blue assay); format: cell-based; conditions: for folds of sensitization of MCF7/VP cells to cisplatin: cisplatin is not an MRP1 substrate; for folds of sensitization of MCF7/VP cells to doxorubicin / folds of sensitization of MCF7/VP cells to etoposide / folds of sensitization of MCF7/VP cells to vincristine: ratio of LD50 in the presence and in the absence of the compound
Procedure: Cells in 96-well plates (5×10^3 per well) were incubated with different concentrations of vincristine in the presence of 5 μM of the candidate compounds for 3 days. Cell numbers then were estimated using methylene blue assay. […] Verapamil (10 μM) was used as control.
FIG. 6 illustrates the effect of the identified inhibitor compounds on cell sensitivity to doxorubicin and vincristine. Cells (with or without MRP1 expression) were incubated 24 hours with the indicated concentrations of vincristine or doxorubicin followed by incubation for additional 48 hours in drugfree media. Cell numbers were quantified by standard methylene blue assay.
(§1) Fold of sensitization is calculated as a ratio of LD50 in the presence and in the absence of the inhibitor compound (see FIG. 6).
FIG. 8 illustrates the effects of the identified inhibitor compounds on sensitivity of MRP1-positive and MRP1-negative cells to vincristine. Fold of sensitization again is calculated as the ratio of LD50 in the presence and in the absence of the inhibitor compound (see FIG. 6).
FIG. 9 illustrates the effects of the identified inhibitor compounds on sensitivity of MRP1-positive and MRP1-negative cells to etoposide. Fold of sensitization again is calculated as the ratio of LD50 in the presence and in the absence of the inhibitor compound (see FIG. 6).
FIG. 10 illustrates the effects of the identified inhibitor compounds on sensitivity of MRP1-positive and MRP1-negative cells to taxol and cisplatin. Fold of sensitization again is calculated as the ratio of LD50 in the presence and in the absence of the inhibitor compound (see FIG. 6).

[2] = molecular target: T1, MRP1 (Homo sapiens, UniProt P33527); experiment: Sensitization to doxorubicin of cells expressing multidrug transporter MRP1; format: cell-based; conditions: ratio of LD50
T1 construct: MCF7/VP breast cancer cells (24), which have amplified and overexpressed MRP1, but negligible Pgp expression; endogenous in cells; host or cells: MCF7/VP (MCF7/VP clone 14) breast cancer cells
T1 sequence (P33527 whole entry): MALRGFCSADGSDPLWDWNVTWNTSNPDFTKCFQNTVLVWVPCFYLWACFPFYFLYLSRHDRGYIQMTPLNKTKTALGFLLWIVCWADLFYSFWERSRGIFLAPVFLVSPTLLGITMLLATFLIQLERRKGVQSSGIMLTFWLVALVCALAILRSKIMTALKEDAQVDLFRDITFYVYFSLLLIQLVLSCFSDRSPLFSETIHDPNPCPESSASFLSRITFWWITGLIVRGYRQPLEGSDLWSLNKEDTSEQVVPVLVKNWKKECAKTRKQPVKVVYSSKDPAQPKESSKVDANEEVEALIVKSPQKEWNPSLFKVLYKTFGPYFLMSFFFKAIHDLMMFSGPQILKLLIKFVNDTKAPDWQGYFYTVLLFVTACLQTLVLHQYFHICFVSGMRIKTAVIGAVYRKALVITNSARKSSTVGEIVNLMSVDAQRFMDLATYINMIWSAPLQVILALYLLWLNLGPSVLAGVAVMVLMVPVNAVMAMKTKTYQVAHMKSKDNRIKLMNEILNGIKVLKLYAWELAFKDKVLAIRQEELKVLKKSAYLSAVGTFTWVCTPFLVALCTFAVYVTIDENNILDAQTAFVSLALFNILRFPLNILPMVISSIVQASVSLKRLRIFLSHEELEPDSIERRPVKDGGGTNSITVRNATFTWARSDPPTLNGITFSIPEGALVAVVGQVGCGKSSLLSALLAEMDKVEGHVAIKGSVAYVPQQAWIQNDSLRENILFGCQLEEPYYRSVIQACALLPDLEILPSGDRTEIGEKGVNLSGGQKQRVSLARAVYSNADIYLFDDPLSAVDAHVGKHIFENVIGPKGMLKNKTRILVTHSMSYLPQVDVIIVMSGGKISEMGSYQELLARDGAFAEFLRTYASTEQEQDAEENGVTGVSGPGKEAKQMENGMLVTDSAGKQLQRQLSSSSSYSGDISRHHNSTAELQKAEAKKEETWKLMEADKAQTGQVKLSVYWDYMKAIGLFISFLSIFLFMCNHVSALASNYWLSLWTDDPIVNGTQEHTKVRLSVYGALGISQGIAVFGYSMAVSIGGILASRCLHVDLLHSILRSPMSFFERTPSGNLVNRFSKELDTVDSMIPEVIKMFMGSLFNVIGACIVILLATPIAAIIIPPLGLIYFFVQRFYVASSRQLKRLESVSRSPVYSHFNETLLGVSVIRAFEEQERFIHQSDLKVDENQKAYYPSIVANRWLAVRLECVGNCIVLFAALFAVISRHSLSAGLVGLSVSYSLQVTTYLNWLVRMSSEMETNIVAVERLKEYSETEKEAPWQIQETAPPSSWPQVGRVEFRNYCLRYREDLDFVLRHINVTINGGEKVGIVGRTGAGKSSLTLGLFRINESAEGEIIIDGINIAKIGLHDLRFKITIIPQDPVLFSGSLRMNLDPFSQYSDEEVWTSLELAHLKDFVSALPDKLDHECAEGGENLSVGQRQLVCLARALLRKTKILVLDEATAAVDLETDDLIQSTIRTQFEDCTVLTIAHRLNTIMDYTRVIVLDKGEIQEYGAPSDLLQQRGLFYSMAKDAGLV
Procedure: as §1
(§2) Fold of sensitization again is calculated as the ratio of LD50 in the presence and in the absence of the inhibitor compound (see FIG. 6).

[3] = molecular target: MRP2 (Homo sapiens, UniProt Q92887); experiment: Sensitization to doxorubicin of cells expressing multidrug transporter MRP2; format: cell-based; conditions: ratio of LD50
Sequence of MRP2 (Q92887 whole entry, species assumed): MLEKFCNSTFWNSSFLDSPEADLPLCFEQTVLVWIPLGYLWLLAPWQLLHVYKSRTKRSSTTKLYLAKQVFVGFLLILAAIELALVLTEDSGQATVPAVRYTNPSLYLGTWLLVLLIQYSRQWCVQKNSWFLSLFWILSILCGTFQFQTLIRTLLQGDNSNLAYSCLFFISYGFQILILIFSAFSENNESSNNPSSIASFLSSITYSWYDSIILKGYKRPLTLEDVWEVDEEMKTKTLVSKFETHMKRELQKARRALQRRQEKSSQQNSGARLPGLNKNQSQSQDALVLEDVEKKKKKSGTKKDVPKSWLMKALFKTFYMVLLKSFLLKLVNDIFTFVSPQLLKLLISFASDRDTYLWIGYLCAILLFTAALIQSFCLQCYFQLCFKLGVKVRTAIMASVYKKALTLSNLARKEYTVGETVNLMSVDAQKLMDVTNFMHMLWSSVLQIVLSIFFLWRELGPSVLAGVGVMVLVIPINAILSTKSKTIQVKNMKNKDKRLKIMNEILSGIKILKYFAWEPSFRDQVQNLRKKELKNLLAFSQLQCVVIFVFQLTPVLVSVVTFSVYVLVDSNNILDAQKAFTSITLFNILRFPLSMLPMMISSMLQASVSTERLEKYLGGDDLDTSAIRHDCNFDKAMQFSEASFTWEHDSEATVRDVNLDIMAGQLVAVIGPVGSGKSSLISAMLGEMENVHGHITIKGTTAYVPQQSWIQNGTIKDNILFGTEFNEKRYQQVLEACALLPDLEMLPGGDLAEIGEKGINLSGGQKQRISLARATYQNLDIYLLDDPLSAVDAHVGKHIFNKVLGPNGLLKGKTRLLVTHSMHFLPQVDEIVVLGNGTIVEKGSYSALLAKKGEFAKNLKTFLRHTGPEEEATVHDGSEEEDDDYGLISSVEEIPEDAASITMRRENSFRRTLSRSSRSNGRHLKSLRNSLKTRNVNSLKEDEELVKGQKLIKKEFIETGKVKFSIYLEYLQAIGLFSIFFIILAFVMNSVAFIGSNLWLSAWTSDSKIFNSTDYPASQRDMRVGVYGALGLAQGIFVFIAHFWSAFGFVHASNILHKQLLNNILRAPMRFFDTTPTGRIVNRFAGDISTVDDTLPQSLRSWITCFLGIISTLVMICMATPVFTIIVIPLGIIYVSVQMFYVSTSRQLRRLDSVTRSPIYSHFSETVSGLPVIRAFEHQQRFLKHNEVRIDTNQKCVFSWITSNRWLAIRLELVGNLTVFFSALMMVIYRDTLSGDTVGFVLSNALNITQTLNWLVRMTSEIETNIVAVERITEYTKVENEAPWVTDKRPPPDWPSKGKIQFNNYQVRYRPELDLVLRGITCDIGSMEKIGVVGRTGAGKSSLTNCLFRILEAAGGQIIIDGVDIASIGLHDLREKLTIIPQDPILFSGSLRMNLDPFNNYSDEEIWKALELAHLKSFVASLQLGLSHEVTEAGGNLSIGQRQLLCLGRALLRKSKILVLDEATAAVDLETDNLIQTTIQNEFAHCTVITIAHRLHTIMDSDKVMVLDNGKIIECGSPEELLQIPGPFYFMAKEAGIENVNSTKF
Procedure: as §1, §2

[4] = molecular target: MDR1 (Homo sapiens, UniProt P08183)
Sequence of MDR1 (P08183 whole entry): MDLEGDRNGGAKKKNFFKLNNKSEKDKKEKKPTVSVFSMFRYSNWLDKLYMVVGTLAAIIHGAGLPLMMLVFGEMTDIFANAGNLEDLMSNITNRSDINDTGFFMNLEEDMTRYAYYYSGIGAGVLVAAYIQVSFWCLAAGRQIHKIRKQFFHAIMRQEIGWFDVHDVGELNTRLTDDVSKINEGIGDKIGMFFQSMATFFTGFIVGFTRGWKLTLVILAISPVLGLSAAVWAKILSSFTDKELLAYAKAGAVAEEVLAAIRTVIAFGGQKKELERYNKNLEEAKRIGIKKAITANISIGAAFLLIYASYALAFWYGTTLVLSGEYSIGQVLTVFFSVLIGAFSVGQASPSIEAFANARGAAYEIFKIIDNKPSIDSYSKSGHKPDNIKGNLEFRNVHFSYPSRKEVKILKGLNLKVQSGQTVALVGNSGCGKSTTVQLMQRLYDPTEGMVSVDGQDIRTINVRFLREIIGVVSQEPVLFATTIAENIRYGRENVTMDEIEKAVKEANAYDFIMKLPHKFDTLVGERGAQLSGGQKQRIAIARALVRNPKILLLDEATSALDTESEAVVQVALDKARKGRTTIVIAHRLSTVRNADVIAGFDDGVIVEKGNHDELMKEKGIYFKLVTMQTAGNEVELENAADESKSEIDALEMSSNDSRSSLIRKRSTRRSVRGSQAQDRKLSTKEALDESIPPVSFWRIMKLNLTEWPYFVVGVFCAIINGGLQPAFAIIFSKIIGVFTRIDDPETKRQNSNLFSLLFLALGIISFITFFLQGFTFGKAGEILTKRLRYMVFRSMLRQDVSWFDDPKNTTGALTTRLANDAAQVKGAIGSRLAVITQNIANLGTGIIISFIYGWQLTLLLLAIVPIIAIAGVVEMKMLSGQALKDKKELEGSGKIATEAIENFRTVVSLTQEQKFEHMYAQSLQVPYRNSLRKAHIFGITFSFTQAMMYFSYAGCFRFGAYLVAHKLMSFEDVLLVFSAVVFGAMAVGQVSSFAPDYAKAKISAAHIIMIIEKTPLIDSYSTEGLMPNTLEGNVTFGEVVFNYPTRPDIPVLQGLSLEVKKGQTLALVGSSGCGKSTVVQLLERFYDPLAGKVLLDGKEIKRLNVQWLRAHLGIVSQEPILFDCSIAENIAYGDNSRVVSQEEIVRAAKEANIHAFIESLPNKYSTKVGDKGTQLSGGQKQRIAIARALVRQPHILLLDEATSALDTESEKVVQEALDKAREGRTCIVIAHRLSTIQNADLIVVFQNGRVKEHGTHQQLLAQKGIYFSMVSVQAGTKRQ
Procedure: as §1, §2

[5] = system: MDR3; experiment: Sensitization to doxorubicin of cells expressing multidrug transporter MDR3; format: cell-based; conditions: ratio of LD50
Procedure: as §1, §2

[6] = molecular target: T1, MRP1; experiment: Daunorubicin retention / efflux assay (FIG. 12); format: cell-based; conditions: daunorubicin 2 hours with compound, then 1 hour drug-free medium; retained daunorubicin
Procedure: FIG. 12 classifies the identified inhibitor compounds according to their strength as inhibitors of […] by MRP1. Cells were treated with daunorubicin in the presence of a test compound or a control for 2 hours, followed by incubation in fresh drug-free medium for 1 hour. Retained daunorubicin levels were measured to determine the effect of the inhibitor compounds on efflux activities.

[7] = molecular target: T1, MRP1; experiment: Dose dependence of drug sensitization effect, 4H10 vs MK571 (FIG. 14); format: cell-based; conditions: three different lots of 4H10
[8] = system: NB cells; experiment: Direct toxicity toward NB cell lines (FIG. 18); format: cell-based; conditions: different lots of compound
[9] = In vivo toxicity, mouse weight after single i.p. injection (FIG. 19); conditions: up to 100 mg/kg
Description: In particular, one parameter for testing toxicity is a weight loss of greater the […] of the body weight of a test mouse.

[10] = system: NB; experiment: In vivo efficacy in mouse model of NB in combination with chemotherapeutic agents (FIG. 20)
Description: The test was a clinically relevant mouse model of NB that closely reflects the human disease (n=10, unless otherwise noted).

[11] = system: GL15 and 8 MG cell lines; conditions: both glioma cell lines; cited from earlier work

Row | SMILES | folds of sensitization of MCF7/VP cells to cisplatin [1] [folds] | folds of sensitization of MCF7/VP cells to doxorubicin [1] [folds] | folds of sensitization of MCF7/VP cells to etoposide [1] [folds] | folds of sensitization of MCF7/VP cells to vincristine [1] [folds] | folds of sensitization of doxorubicin, cells expressing MRP1 [2] [folds] | folds of sensitization of doxorubicin, cells expressing MRP2 [3] [folds] | folds of sensitization of doxorubicin, cells expressing MDR1 [4] [folds] | folds of sensitization of doxorubicin, cells expressing MDR3 [5] [folds] | strength as inhibitor of daunorubicin efflux by MRP1 [6] | concentrations showing drug sensitization effect [7] | direct toxicity against NB cells [8] | effect on mouse weight ([9]; 30 days) | in vivo toxicity ([9]; 30 days of observation) | effectiveness compared with BSO [10] | accumulation of vincristine and etoposide [11]
1 | O=C(NCCCN1CCOCC1)c1cnn2c(-c3ccccc3)cc(-c3ccccc3)nc12 [Compound 4H10] | 1.2 | 3.8 | 58 | 14.2 | 4.1 | 3.3 | 4.5 | 0.9 | most potent inhibitor | submicromolar | no direct toxicity | did not adversely affect mouse weight | lack of in vivo toxicity | much more effective than BSO | –
2 | CCN(CC)CCCNC(=O)c1cnn2c(C(F)(F)F)cc(-c3ccc(C)cc3)nc12 [Compound 4E10] | 1.25 | 3.2 | 27 | 12 | 3.7 | 7 | 2.0 | 0.6 | – | – | – | – | – | – | –
3 | C=CCSc1nnc2n(-c3ccccc3)c(=O)c3c4c(sc3n12)CCC4 [Compound 9C06] | 1.5 | 3.3 | 12 | 16 | 3.3 | 4.3 | 3.7 | 0.4 | – | – | – | – | – | – | –
4 | CC(Sc1nnc(-c2ccco2)n1-c1ccccc1)C(=O)NC(c1ccccc1)c1ccccc1 (stereo not shown) [Compound 4G05] | 1.1 | 1.6 | 2 | 3 | 1.75 | 1.5 | 4.6 | 2.4 | – | – | – | – | – | – | –
5 | O=C(NCCN1CCOCC1)c1cnn2c(-c3ccccc3)cc(-c3ccccc3)nc12 [Compound 4E11] | 1.1 | 2.7 | 34 | 10.5 | 3.9 | 6.5 | 4.2 | 0.7 | – | – | – | – | – | – | –
6 | CCCN(CCC)S(=O)(=O)c1ccc(C(=O)O)cc1 [probenecid] | – | – | – | – | – | – | – | – | – | – | – | – | – | – | increased the accumulation
7 | c1ccc(-c2cn3c4ccccc4nc3n2CCN2CCCCC2)cc1 [Compound 14C08] | 1.05 | 4.0 | 18 | 14 | 3.0 | 1.3 | 3.7 | 0.6 | – | – | – | – | – | – | –
8 | Cc1nnc(SCC(=O)N/N=C/c2cccc3cccnc23)n1-c1ccccc1 [Compound 17A08] | 1.1 | 3.6 | 5 | 3 | 1.1 | 1.4 | 2 | 1.3 | – | – | – | – | – | – | –
9 | COc1ccc2c(c1)c(CC(=O)O)c(C)n2C(=O)c1ccc(Cl)cc1 [Indomethacin] | – | – | – | – | – | – | – | – | – | – | – | – | – | – | increased the accumulation
